Reference: US20040110253A1, “Method for identifying MHC-presented peptide epitopes for T cells” (priority 2002, published 2004)

Legend:
[1] = system: B3K-06 hybridoma; test: IL-2 production by B3K-06 T cell hybridoma in response to IA^b-peptide presenting APCs; format: cell-based, mouse
Excerpt: The hybridoma, B3K-06 was produced from wild-type C57BL/6 mice immunized conventionally with the peptide (Rees et al., 1999, supra). […] Also, as is commonly seen with conventional T cells, the interaction of the αβ TcR of B3K-06 with IA^b-p3K is very sensitive to changes in any of the peptide amino acids exposed on the surface of the IA^b-p3K complex. Mutation of positions Q2, K3, K5, N7 or K8 to alanine virtually eliminates recognition of p3K by B3K-06 (Liu et al., 2002, supra and additional data not shown).
(§1) At the time of the final enrichment, single infected cells binding each of αβTCRs were sorted into individual wells of 96 well culture plates containing fresh SF9 cells in order to prepare clonal viral stocks. These stocks were used to infect fresh SF9 cells which were reanalyzed for binding to the appropriate αβTCR as described above. […] The majority of PCR fragments yielded a single unambiguous peptide sequence. These viruses were used to infect SF9 cells that expressed mouse ICAM and B7.1. The infected cells were used as APCs for either the B3K-06 or YAe-62 hybridoma with IL-2 production being a measure of IA^b-peptide recognition. Viruses expressing IA^b-peptide combinations that neither bound to the αβTCR nor stimulated the T cell hybridomas were used as negative controls and virus producing IA^b-p3K was used as the positive control. Results with a few representative virus clones are shown in FIG. 10A and 10B, and a summary of all of the results are shown in Table 1.

[2] = system: B3K-06 TCR; test: Binding of fluorescent soluble B3K-06 αβTCR to SF9 cells displaying IA^b-peptide (flow cytometry); design: species or system mouse
Experimental: (§2) Next fluorescent, soluble αβTCR reagents were prepared for use in flow cytometry to detect insect cells displaying the appropriate MHCII/peptide combination. Fluorescent multivalent versions of the soluble αβTCR's of B3K-06 and YAe-62 bound to insect cells displaying the IA^b-p3K, but not a control MHCII-peptide combination (data not shown).
(§3) Insect cells displaying IA^b-p3K bound the αβTCR reagents very heterogeneously, probably due to heterogeneous expression of IA^b-p3K due to variations in the multiplicity of infection and the lack of synchrony in viral infection and expression. […] In this case, there was a direct correlation between the amount of surface IA^b-p3K expressed by an individual insect cell and the amount of αβTCR bound with cells bearing a particular level of IA^b-p3K binding the αβTCRs uniformly (data not shown). Therefore, comparing the two types of staining gave a useful tool to evaluate the relation between peptide sequence and the strength of αβTCR binding (see below).
(§4) A large number of SF9 insect cells were infected at an MOI of about one with baculovirus carrying the IA^b peptide library. After 3-4 days the cells were analyzed with fluorescent B3K-06 or YAe-62 soluble αβTCR, as described above. Fluorescent cells were sorted and cultured with fresh uninfected SF9 cells to create new infected cells for analysis and an enriched viral stock. This process was repeated 3 to 4 times. In each case, when no clear fluorescent population was apparent, the brightest 1% of the infected cells was sorted. In later rounds, the majority of the cells in a clearly distinguishable fluorescent population were sorted. Infected cells binding the B3K-06 αβTCR were apparent only after two rounds of enrichment but eventually yielded a population with uniform binding (data not shown). Infected cells that bound the YAe-62 αβTCR were detectable even with the initial library of viruses and enriched rapidly to yield a population with more heterogeneous levels of binding to the receptor (data not shown).
as §1

[3] = system: YAe-62 TCR; test: Binding of fluorescent soluble YAe-62 αβTCR to SF9 cells displaying IA^b-peptide (flow cytometry); design: species or system mouse
Experimental: as §2, §3, §4, §1

[4] = system: YAe-62 hybridoma; test: IL-2 production by YAe-62 T cell hybridoma in response to IA^b-peptide presenting APCs; format: cell-based, mouse
Excerpt: The mouse T cell hybridoma, referred to as YAe-62, was chosen as a representative of broadly reactive T cells present in mice carrying transgenes and gene knockouts that lead to expression of MHC Class II that are almost completely occupied by a single peptide (Ignatowicz et al., 1996, Cell 84:521-529). The T cell was produced by immunization with p3K bound to IA^b in mice that express IA^b covalently linked to Eα, a dominant IA^b binding peptide derived from the MHC Class II IEα chain. YAe-62 responds to IA^b-p3K, but not to APCs lacking MHC Class II or to the IA^b-pEα APCs from the mouse from which it was derived. YAe-62 is also reactive against many cell types bearing IA^b in the absence of p3K. It also responds to APCs from a variety of mice carrying other alleles of IA. The inventors have postulated that this T cell responds mainly to the evolutionarily conserved regions of the IA molecule with less dependence on the peptide than seen with conventional T cells (Marrack et al., 2001, J. Immunol. 167:617-621). […] From the X-ray crystal structure of IA^b (Liu et al., 2002, supra) enough was known about how peptides bind to this MHC molecule to design a strategy in which the major MHC anchor amino acids of the peptide could be held constant and only five surface exposed amino acids need be varied in the library (FIG. 8).
as §1

[5] = molecular target: T1, IA^b (Mus musculus, UniProt P14434+P14483); settings: Rees et al., 1999; cited from earlier work
T1 sequence (P14434 24-256): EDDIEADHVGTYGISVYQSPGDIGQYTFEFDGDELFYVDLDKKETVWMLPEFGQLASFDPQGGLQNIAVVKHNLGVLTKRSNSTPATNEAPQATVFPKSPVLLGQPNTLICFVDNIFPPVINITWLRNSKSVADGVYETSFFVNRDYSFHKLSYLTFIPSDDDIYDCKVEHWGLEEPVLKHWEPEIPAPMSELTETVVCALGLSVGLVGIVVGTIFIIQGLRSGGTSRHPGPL
T1 sequence (P14483 28-265): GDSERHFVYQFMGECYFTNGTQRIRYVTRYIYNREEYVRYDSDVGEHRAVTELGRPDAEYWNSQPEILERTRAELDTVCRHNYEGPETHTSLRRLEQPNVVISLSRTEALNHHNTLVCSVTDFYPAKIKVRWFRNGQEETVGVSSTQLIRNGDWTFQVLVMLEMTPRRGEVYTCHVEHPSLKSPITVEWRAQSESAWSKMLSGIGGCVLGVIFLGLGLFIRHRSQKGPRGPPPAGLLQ

[6] = system: T cell 3DT-52.5; test: IL-2 production by T cell 3DT-52.5 in response to LKD8 cells plus synthetic peptide; format: cell-based, mouse; settings: synthetic peptide 100 ug/ml, D^d expressing Tap deficient cell line, twenty four hours
Excerpt: FIG. 14B is a graph showing IL-2 produced by T cell […] in response to (1) P815 plus a bound unknown self-peptide and 2) LKD8, alone, or in the presence of the library derived peptide, TGPTRWCRL (SEQ ID NO:50), or a peptide derived from the spin protein, AGATRWCRL (SEQ ID NO:51).
DNA from a number of these clones was sequenced through the region encoding the peptide to determine the peptide sequence. Only one sequence was found, a 9mer, TGPTRWCRL (represented by SEQ ID NO:50; the underlined amino acids are in the positions varied in the library). […] A search of the mouse genome for proteins that contained peptides similar to the library peptide yielded a very similar sequence (AGATRWCRL; SEQ ID NO:51) intheprotein, spin(GenBank Accession No. BC011467). The library peptide and the spin peptide were synthesized and tested with a D^d expressing, Tap deficient, cell line for recognition by the original T cell (FIG. 14B). […] In the case of LKD8 the cell line was tested alone or in the presence of 100 ug/ml of the library derived peptide, TGPTRWCRL (SEQ ID NO:50), or a peptide derived from the spin protein, AGATRWCRL (SEQ ID NO:51). After twenty four hours the culture supernatants were assayed for IL-2. Without an added peptide, the D^d on this cell line was not recognized because the Tap deficiency prevents loading of endogenous peptides.

[7] = system: T cell 3DT-52.5; test: IL-2 production by T cell 3DT-52.5 in response to infected SF9 cells expressing D^d tethered to peptide; format: cell-based, mouse; settings: infected insect cells expressing D^d bearing the peptide as APCs
Excerpt: FIG. 14A is a graph showing IL-2 produced by T cell 3DT-52.5 in response to ICAM+/B7+ SF9 cells infected with baculovirus expressing D^d tethered to either pHIV or the αβTCR identified peptide, TGPTRWCRL (SEQ ID NO:50).
To screen the library, soluble a αβTCR were produced from a mouse T cell specific for D^d plus an unknown self-peptide (Endres et al., 1983, J Immunol 131:1656-1662). A multimeric, fluorescent version of the αβTCR was produced as described for MHCII specific αβTCRs. SF9 cells, infected with the library at a multiplicity of infection (MOI) of <1, were analyzed for binding of the fluorescent αβTCR (data not shown). Although no clearly fluorescent population of cells was seen, of those with good surface D^d expression, the 1% of the cells with the brightest fluorescence were sorted and cultured with fresh insect cells to expand the virus. This type of enrichment was repeated six times, producing a clear population of infected cells was detected that bound the αβTCR (data not shown). The infected cells were cloned with fresh insect cells to prepare clonal viral stocks. These stocks were re-tested for encoding a D^d-peptide combination that bound the αβTCR.
DNA from a number of these clones was sequenced through the region encoding the peptide to determine the peptide sequence. […]

[8] = IA^b-peptide displayed on baculovirus-infected SF9 cells, fluorescent soluble αβTCR
[9] = insect cells displaying IA^b-peptide

Row | Substance | IL-2 Production (units/ml) ([1]; B3K-06 hybridoma, infected SF9 cells expressing mouse ICAM and B7.1 as APCs) | response of B3K-06 to IA^b-expressing APCs plus peptide ([1]; IA^b-expressing APCs, data not shown) | B3K-06 TCR Binding (% of p3K) [2, 8] | binding of B3K-06 αβTCR to IA^b-peptide complex (in words) [2, 9] | YAe-62 TCR Binding (% of p3K) [3, 8] | binding of YAe-62 αβTCR to IA^b-peptide complex (in words) [3, 9] | response of YAe-62 to IA^b-peptide APCs ([4]; APCs bearing IA^b-peptide) | IL-2 Production (units/ml) ([4]; YAe-62 hybridoma, infected SF9 cells expressing mouse ICAM and B7.1 as APCs) | binding of peptide to IA^b [5] | restoration of the ability of LKD8 cells to stimulate the T cells (IL-2) [6] | stimulation of IL-2 production from the original T cell donor of the αβTCR [7]
1 | F E A Q K A K A N K A V (FEAQKAKANKAV; synthetic peptide motif) [p3K, positive control] | 3500 units/ml | responds to IA^b-expressing APCs in the presence, but not in the absence of the peptide | 100.0 % of p3K | bound | 100.0 % of p3K | bound | responds | 205 units/ml | binds well | – | –
2 | TGPTRWCRL (synthetic peptide motif) [9mer D^d library derived peptide identified with the αβTCR of 3DT-52.5] | – | – | – | – | – | – | – | – | – | restored the ability of the cells to stimulate the T cells | specifically stimulated IL-2 production
